Test results as given in publication PMC7601674, “CoQ10 Deficient Endothelial Cell Culture Model for the Investigation of CoQ10 Blood–Brain Barrier Transport” (Journal of Clinical Medicine, 2020).

Key:
[1] = design: method as in PMID 9671775; conditions: diet supplemented with 200 mg/kg CoQ10 for 2 months; cited from earlier work
[2] = test system: bEnd.3 cells (mouse BBB cell line) monolayer; assay: CoQ10 transport assay across bEnd.3 monolayer on Transwell filters (control or pABA treated)
Protocol: (§1) Unless stated, CoQ10 was pre-treated by incubation in serum at a concentration of 20 µM for 45 min at 37 °C, and added to assay buffer on either the Apical (blood facing) or Basal (brain facing) side of the cells on Transwell filters. The final concentration of CoQ10 used in the assays was 10 µM in serum (50% v/v). Cells were then incubated for 60 min on an orbital shaker (100 rpm) at 37 °C. Samples of the Apical (A) and Basal (B) media were then taken for analysis to calculate A to B (blood-to-brain) or B to A (brain-to-blood) Papp in cm/s, as previously described by Patabendige et al.. CoQ10 concentrations were determined using the LC-MS/MS method described above (Section 2.2).
(§2) Inhibitors of transport were added to both Apical and Basal sides of the cells for 2 h prior to assay. Antioxidants were pre-incubated with CoQ10 in serum for 45 min prior to assay, and were present in the assay buffer. Compounds used were; SR-B1 inhibitor, blocker of lipid transport-1 (BLT-1; 10 µmol/L)
As previously described, para-aminobenzoic acid (pABA) was used as a pharmacological reagent to induce CoQ10 deficiency. The mechanism of action is via competitive inhibition of polyprenyl-4-hydroxybenzoate transferase (Coq2p), a key enzyme in the later stages of the CoQ10 biosynthetic pathway. Following the method of Duberley et al., 1 mmol/L pABA was added to culture medium for 5 days prior to assay.

[3] = test system: ataxic symptoms; design: method as in PMID 22490322; conditions: cerebellar ataxic phenotype, following CoQ10 supplementation; cited from earlier work
[4] = test system: primary porcine brain endothelial cells (PBEC) monolayer; assay: CoQ10 transport assay across PBEC monolayer on Transwell filters; conditions: for Transport to the Basal side, percentage of Apical compartment: A to B, no serum pre-incubation
Protocol: Primary porcine brain endothelial cells (PBEC) were isolated and cultured as previously published. Briefly, cells were seeded at 10 × 10^4 cells/cm^2 on collagen and fibronectin-coated polycarbonate Transwell filters (Corning 0.4 µm pore size) in 12-well plates, and grown in low glucose DMEM (Sigma D5546) supplemented with bovine plasma-derived serum (10% v/v; BPDS, First Link UK), glutamine (2 mM), heparin (125 µg/mL), penicillin (100 U/mL) and streptomycin (100 µg/mL), at 37 °C in a 5% CO2 incubator. PBECs were grown in non-contact co-culture above primary rat astrocytes until confluent, then supplemented with hydrocortisone (550 nM), 8-4-chlorophenylthio-cAMP (250 µM) and RO-20-1724 (17.5 µM) in serum-free medium for a further 3 days. Before assays of CoQ10 transport, PBECs were separated from astrocytes by moving transwell filters to fresh culture plates.
as §1, §2

[5] = design: method as in PMID 16647250; conditions: high-dose (1000–5000 mg/kg) CoQ10; cited from earlier work
[6] = design: method as in PMID 17482886, PMID 22272129; conditions: after oral-supplementation in vivo; cited from earlier work
[7] = CoQ10 partition in serum lipoprotein fractions; type: in vitro ADME, bovine; conditions: for CoQ10 content in HDL fraction / CoQ10 content in LDL fraction: n = 3; for CoQ10 content in vLDL fraction: calculated by subtraction
Protocol: Bovine plasma-derived serum (BPDS) was either untreated or supplemented with 10 µM CoQ10 for 45 min at 37 °C. Serum lipoproteins were then fractionated according to the method of Ononogbu et al. and the CoQ10 content measured in each fraction by LC-MS/MS. This lipoprotein fraction method is comprised of two parallel precipitation-centrifugation extractions, yielding a separation of the major classes of lipoprotein as supernatants containing “LDL + HDL” and “HDL”. The concentration of CoQ10 in the “VLDL” fraction was calculated by subtraction.

[8] = test system: CoQ10 deficient human neuroblastoma cells; design: method as in PMID 24534273; conditions: treatment with 10 μmol/L CoQ10; cited from earlier work
[9] = serum supplemented with 10 μmol/L CoQ10
[10] = serum supplemented with 10 μmol/L CoQ10, 45 min

**Q.** With `COC1=C(OC)C(=O)C(C/C=C(\C)CC/C=C(\C)CC/C=C(\C)CC/C=C(\C)CC/C=C(\C)CC/C=C(\C)CC/C=C(\C)CC/C=C(\C)CC/C=C(\C)CCC=C(C)C)=C(C)C1=O` [CoQ10, Coenzyme Q10] as the molecule, how does the “Increase in cerebral cortex CoQ10 and CoQ9” value [1] read?
**A.** 30%

**Q.** What about the “Effect of serum pre-incubation on Papp (A to B and B to A)” value ([2]; bEnd.3, 60 min) of the same molecule?
**A.** enhanced transport in both directions

**Q.** What about the “NET CoQ10 Apical to Basal Papp (A to B Papp - B to A Papp)” value (“NET CoQ10 Apical to Basal Papp” for short) ([2]; bEnd.3, Control) of the same molecule?
**A.** -0.02 ×10⁻⁶ cm/s

**Q.** And the “NET CoQ10 Apical to Basal Papp” value ([2]; bEnd.3, LDLR inhib (RAP 0.5 µM))?
**A.** 0.1 ×10⁻⁶ cm/s

**Q.** And the “NET CoQ10 Apical to Basal Papp” value ([2]; bEnd.3, P-gp inhib (verapamil 0.1 mM))?
**A.** -0.04 ×10⁻⁶ cm/s

**Q.** What about the “NET CoQ10 Apical to Basal Papp” value ([2]; bEnd.3, RAGE inhib (FPS-ZM1 1 µM)) of the same molecule?
**A.** -0.08 ×10⁻⁶ cm/s

**Q.** What about the “NET CoQ10 Apical to Basal Papp” value ([2]; bEnd.3, SR-B1 inhib (BLT-1 10 µM)) of the same molecule?
**A.** -0.13 ×10⁻⁶ cm/s

**Q.** What about the “Transport across monolayer after pABA treatment vs control” value ([2]; bEnd.3, pABA 1 mM 5 days) of the same molecule?
**A.** increased transport

**Q.** And the “Patients with improvement/stabilisation in ataxic symptoms” value [3]?
**A.** 49%

**Q.** What about the “Transport to the Basal side, percentage of Apical compartment” value ([4]; 30 min) of the same molecule?
**A.** undetectable

**Q.** What about the “Transport to the Basal side, percentage of Apical compartment” value ([4]; after 2 h, n = 4) of the same molecule?
**A.** 0.51 ± 0.15%

**Q.** And the “Increase of transport across PBEC monolayer after pre-incubation in serum” value ([4]; CoQ10 pre-incubated 45 min in serum (BPDS) vs no serum)?
**A.** 4 fold

**Q.** What about the “Effect of serum pre-incubation on Papp (A to B and B to A)” value ([4]; PBEC, 60 min) of the same molecule?
**A.** enhanced transport in both directions

**Q.** What about the “Transport across monolayer after pABA treatment vs control” value ([4]; PBEC, pABA 1 mM 5 days) of the same molecule?
**A.** increased transport

**Q.** What about the “Brain levels of CoQ10 and CoQ9” value [5] of the same molecule?
**A.** significantly increased in brain levels of CoQ10 and CoQ9

**Q.** And the “Highest achievable CoQ10 plasma concentration” value [6]?
**A.** 10.7 µmol/L

**Q.** And the “Supplemented CoQ10 recovered in the vLDL/LDL fractions” value ([7]; serum supplemented with 10 µM CoQ10)?
**A.** More than 92%

**Q.** What about the “% of CoQ10 in HDL fraction” value [7, 9] of the same molecule?
**A.** 7.2%

**Q.** What about the “% of CoQ10 in LDL fraction” value [7, 9] of the same molecule?
**A.** 63.8%

**Q.** And the “% of CoQ10 in vLDL fraction” value [7, 9]?
**A.** 29%

**Q.** And the “CoQ10 content in HDL fraction” value [7, 10]?
**A.** 762 ± 8.1 nmol/L

**Q.** And the “CoQ10 content in LDL fraction” value [7, 10]?
**A.** 6718 ± 103.5 nmol/L

**Q.** And the “CoQ10 content in vLDL fraction” value [7, 9]?
**A.** 3060 ± 138.8 nmol/L

**Q.** What about the “Serum endogenous CoQ10 content” value ([7]; untreated cell culture serum) of the same molecule?
**A.** 147.5 ± 0.5 nM

**Q.** What about the “% of CoQ10 in HDL fraction” value ([7]; untreated serum) of the same molecule?
**A.** 21.7%

**Q.** What about the “% of CoQ10 in LDL fraction” value ([7]; untreated serum) of the same molecule?
**A.** 77.7%

**Q.** What about the “% of CoQ10 in vLDL fraction” value ([7]; untreated serum) of the same molecule?
**A.** 0.6%

**Q.** What about the “CoQ10 content in HDL fraction” value ([7]; untreated serum) of the same molecule?
**A.** 32.7 ± 1.8 nmol/L

**Q.** And the “CoQ10 content in LDL fraction” value ([7]; untreated serum)?
**A.** 117.0 ± 1.2 nmol/L

**Q.** And the “CoQ10 content in vLDL fraction” value ([7]; untreated serum)?
**A.** 0.9 ± 0.01 nmol/L

**Q.** And the MRC function [8]?
**A.** restores MRC function
